The numbers were not newly measured in US20200306335A1, “A Dietary Composition Comprising Plant-Based Sources of Fatty Acids” (priority 2017, published 2020), which cites them from elsewhere.

The target of one data set is T1, 5 alpha-R Type 1 (Homo sapiens, UniProt P18405).
T1 sequence (P18405 1-259): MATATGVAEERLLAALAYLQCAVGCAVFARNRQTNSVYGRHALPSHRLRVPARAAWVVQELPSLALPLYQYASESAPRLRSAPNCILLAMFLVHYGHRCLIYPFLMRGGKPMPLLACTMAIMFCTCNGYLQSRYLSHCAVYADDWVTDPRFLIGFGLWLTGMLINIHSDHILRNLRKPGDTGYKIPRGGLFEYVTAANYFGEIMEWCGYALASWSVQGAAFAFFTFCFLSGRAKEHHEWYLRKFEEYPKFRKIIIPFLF
The following applies: result in words, from a study cited in the background.

The target of a further data set is T2, 5 alpha-R Type 2 (Homo sapiens, UniProt P31213).
T2 sequence (P31213 1-254): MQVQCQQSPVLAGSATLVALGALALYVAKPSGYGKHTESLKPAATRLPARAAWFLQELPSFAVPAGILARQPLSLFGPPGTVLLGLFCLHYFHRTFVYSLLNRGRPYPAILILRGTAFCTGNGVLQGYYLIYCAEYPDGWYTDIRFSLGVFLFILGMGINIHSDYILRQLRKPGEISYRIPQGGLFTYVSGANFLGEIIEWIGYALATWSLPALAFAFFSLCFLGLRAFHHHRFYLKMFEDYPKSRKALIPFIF
The following applies: result in words, from a study cited in the background.

With `CCCCCCCC/C=C\CCCCCCCC(=O)O` [Oleic, oleic acid], the “inhibition of 5 alpha-R Type 1” value at 5 alpha-R Type 1 is on record as “active inhibitors”. For the same compound, the “inhibition of 5 alpha-R Type 2” value at 5 alpha-R Type 2 is given as “little to no inhibitory activity”.

Consider `CCCCCCCCCCCC(=O)O` [Lauric acid, lauric acid], for which, on 5 alpha-R Type 1, the “inhibition of 5 alpha-R Type 1” value was “active inhibitor”. Further, the “inhibition of 5 alpha-R Type 2” value at 5 alpha-R Type 2 was “active inhibitor”. `CCCCC/C=C\C/C=C\CCCCCCCC(=O)O` [linoleic acid]: the “inhibition of 5 alpha-R Type 1” value at 5 alpha-R Type 1 is “active inhibitors”. The “inhibition of 5 alpha-R Type 2” value at 5 alpha-R Type 2 was “little to no inhibitory activity”.

Take `CCCCCCCCCCCCCC(=O)O` [Myristic acid, myristic acid]: the “inhibition of 5 alpha-R Type 2” value at 5 alpha-R Type 2 is listed as “strongly inhibit”.
